Laboratory results reported in patent US8557833B2, “Aminopyrimidines useful as kinase inhibitors” (priority 2005, dated 2013).

Key:
Type in all cases: biochemical
Conditions in all cases: ATP at or close to Km
[1] = molecular target: T1, MuSK (Homo sapiens, UniProt O15146); assay: MuSK inhibition assay
T1 sequence (O15146 24-869): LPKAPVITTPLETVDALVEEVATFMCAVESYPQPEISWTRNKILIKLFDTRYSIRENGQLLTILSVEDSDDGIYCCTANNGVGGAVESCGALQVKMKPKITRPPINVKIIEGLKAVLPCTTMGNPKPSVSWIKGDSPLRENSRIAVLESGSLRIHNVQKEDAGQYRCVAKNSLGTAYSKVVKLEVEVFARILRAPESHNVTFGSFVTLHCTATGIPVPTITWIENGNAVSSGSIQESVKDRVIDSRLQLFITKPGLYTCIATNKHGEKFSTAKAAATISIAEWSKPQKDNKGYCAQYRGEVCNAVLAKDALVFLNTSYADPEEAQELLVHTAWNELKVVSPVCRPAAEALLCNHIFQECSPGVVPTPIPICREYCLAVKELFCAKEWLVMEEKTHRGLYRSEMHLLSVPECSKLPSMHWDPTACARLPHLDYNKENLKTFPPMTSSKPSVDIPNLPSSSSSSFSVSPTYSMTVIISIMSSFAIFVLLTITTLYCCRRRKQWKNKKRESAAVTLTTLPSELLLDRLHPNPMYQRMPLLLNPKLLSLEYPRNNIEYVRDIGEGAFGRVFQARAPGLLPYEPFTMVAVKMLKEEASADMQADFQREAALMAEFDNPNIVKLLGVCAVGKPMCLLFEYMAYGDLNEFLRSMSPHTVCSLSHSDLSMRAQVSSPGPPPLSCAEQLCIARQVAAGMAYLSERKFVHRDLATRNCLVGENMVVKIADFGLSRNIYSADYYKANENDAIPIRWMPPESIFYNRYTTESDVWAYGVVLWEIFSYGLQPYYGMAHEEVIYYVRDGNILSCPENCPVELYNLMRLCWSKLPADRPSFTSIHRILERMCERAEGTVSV
Source text: (§1) Compound I-1 was screened for its ability to inhibit Arg (Abl-2), FGFR1, MELK, MLK1, MuSK, Ret, and TrkA using screening methods known to one of ordinary skill in the art. All of the above enzymes were screened with ATP concentrations at or close to the Km for ATP.

[2] = molecular target: Arg (Abl-2) (Homo sapiens, UniProt P42684); assay: Arg (Abl-2) inhibition assay
Source text: as §1

[3] = molecular target: FGFR1 (Homo sapiens, UniProt P11362); assay: FGFR1 inhibition assay
Chain of FGFR1 (P11362 22-822, species assumed): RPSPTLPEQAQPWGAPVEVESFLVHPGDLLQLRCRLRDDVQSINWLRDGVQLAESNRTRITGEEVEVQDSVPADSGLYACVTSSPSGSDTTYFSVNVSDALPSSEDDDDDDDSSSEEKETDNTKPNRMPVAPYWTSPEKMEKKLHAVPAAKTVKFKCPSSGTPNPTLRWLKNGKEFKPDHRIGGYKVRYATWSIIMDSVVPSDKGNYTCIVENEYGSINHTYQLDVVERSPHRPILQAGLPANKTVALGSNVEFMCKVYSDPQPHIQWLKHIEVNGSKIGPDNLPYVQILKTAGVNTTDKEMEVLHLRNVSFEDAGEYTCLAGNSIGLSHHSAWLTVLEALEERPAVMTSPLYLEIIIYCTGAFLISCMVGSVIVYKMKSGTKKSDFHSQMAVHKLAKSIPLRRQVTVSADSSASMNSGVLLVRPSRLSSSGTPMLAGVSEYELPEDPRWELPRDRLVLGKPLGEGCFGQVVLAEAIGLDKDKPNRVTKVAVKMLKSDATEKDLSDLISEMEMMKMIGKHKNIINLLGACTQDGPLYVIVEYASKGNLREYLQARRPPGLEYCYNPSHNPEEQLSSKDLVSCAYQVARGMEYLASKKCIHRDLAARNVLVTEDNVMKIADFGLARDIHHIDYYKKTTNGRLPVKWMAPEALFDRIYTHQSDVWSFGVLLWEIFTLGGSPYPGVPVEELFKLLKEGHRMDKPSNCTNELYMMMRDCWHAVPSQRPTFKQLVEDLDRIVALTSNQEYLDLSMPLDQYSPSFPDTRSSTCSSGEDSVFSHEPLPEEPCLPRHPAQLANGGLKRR
Source text: as §1

[4] = molecular target: MELK (Homo sapiens, UniProt Q14680); assay: MELK inhibition assay
Chain of MELK (Q14680 whole entry, species assumed): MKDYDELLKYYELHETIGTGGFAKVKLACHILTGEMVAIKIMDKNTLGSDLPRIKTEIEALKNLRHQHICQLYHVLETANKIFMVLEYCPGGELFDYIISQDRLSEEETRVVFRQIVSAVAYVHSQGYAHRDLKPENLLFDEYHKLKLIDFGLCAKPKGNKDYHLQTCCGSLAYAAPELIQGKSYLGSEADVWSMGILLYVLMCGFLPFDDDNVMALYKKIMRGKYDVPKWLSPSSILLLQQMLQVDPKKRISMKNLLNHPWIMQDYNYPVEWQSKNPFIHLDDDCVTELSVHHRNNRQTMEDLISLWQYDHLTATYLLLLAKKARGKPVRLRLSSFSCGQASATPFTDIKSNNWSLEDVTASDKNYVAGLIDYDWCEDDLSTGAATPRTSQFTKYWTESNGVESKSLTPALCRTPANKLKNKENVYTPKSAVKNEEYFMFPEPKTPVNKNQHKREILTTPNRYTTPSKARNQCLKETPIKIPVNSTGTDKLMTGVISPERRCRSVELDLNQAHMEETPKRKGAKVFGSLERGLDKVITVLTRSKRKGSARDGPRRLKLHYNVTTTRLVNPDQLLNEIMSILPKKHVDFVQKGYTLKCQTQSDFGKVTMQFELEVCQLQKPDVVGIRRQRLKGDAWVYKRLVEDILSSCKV
Source text: as §1

[5] = molecular target: Ret (Homo sapiens, UniProt P07949); assay: Ret inhibition assay
Chain of Ret (P07949 29-1114, species assumed): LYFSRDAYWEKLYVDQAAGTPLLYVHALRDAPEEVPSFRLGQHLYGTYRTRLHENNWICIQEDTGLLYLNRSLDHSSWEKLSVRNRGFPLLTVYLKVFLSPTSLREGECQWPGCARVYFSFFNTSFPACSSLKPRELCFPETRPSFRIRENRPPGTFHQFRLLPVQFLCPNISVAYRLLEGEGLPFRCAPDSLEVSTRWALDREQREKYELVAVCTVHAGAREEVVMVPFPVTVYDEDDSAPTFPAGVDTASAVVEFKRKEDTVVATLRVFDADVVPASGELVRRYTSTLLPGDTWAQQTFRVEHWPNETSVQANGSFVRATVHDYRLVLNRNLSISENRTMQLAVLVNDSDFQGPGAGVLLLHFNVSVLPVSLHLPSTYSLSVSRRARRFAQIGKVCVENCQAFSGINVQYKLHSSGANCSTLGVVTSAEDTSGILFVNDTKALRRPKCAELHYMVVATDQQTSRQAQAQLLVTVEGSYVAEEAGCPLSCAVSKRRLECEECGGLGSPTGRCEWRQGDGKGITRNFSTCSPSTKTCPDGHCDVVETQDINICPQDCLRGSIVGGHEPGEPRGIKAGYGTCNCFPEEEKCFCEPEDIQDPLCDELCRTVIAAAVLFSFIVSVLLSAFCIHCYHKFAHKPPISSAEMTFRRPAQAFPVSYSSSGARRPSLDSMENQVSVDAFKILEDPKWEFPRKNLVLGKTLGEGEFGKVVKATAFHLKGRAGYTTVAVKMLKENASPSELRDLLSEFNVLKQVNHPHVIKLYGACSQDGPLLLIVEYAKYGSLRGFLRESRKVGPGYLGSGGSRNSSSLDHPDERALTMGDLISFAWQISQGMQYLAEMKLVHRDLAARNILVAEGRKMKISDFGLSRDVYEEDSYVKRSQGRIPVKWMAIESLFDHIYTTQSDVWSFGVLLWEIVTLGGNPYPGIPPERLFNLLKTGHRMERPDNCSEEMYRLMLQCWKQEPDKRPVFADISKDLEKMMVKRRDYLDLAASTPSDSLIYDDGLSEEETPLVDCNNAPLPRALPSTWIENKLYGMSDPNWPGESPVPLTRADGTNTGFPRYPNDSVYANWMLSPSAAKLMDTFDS
Source text: as §1

[6] = molecular target: TrkA (Homo sapiens, UniProt P04629); assay: TrkA inhibition assay
Chain of TrkA (P04629 33-796, species assumed): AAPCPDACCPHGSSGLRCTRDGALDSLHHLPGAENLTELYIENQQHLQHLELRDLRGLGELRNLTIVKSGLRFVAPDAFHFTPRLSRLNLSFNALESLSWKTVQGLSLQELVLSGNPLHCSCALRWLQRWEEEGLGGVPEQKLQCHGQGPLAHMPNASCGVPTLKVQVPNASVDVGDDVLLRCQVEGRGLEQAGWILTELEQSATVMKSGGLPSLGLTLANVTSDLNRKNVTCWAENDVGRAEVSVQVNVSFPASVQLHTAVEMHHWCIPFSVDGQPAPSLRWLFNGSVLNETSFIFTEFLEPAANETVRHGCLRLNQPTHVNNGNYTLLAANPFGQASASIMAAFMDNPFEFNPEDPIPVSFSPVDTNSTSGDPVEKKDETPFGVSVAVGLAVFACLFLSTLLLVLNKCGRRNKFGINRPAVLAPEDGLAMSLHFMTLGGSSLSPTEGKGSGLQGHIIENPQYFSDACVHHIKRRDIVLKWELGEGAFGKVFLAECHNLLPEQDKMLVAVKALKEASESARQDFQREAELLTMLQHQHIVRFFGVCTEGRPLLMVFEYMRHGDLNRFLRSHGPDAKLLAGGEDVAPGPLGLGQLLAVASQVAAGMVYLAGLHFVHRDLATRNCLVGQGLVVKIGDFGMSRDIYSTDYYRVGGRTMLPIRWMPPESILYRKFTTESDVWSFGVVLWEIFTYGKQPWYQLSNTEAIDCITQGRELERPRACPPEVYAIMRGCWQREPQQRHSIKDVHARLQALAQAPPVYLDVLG
Source text: as §1

[7] = molecular target: MLK1 (Homo sapiens, UniProt P80192); assay: MLK1 inhibition assay
Chain of MLK1 (P80192 whole entry, species assumed): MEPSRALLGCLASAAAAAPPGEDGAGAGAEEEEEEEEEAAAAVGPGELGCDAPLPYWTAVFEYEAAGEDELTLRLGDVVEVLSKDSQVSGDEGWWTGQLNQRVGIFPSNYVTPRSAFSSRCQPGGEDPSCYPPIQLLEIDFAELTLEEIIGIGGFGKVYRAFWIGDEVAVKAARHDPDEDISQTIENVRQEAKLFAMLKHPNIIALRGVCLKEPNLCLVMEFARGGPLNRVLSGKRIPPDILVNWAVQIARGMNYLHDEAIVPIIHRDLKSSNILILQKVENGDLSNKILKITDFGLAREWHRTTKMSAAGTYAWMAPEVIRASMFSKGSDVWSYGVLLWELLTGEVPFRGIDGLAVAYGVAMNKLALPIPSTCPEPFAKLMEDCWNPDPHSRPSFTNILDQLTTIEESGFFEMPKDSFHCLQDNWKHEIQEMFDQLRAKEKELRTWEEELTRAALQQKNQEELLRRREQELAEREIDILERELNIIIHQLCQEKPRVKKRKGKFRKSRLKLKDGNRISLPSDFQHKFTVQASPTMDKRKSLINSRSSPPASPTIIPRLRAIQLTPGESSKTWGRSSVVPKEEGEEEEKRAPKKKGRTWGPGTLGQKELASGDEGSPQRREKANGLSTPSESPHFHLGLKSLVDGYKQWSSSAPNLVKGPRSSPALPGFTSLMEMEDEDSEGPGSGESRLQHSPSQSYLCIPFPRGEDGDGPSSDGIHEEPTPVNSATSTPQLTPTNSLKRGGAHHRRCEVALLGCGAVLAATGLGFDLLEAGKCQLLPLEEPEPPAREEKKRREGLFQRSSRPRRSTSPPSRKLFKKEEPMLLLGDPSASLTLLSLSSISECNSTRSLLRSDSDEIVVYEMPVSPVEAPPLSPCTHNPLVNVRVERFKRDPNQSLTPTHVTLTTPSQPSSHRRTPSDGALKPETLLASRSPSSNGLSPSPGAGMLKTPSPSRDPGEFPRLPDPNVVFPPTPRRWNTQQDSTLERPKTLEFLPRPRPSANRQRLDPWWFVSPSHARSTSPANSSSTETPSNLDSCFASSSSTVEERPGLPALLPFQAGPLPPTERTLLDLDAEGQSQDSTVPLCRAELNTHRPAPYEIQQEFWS
Source text: as §1

- Ki [1]: 70 nM
- Ki [2]: 12 nM
- Ki [3]: 5 nM
- Ki [4]: 17 nM
- Ki [5]: 8 nM
- Ki [6]: < 6 nM
- Ki [7]: < 18 nM
SMILES: Cc1cc(Nc2cc(N3CCC3)nc(Sc3ccc(NC(=O)c4ccccc4Cl)cc3)n2)[nH]n1 [Compound I-1, N-{4-[4-Azetidin-1-yl-6-(5-methyl-2H-pyrazol-3-ylamino)-pyrimidin-2-ylsulfanyl]-phenyl}-2-chloro-benzamide]
